Source: PubChem BioAssay (NCI)
Values joined by “and” are separate entries in the source; they are usually repeats but may differ in a detail not shown here. Identical values can stand only once.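 Cultured in 96-well plates, cells were exposed to test compound for 48 hours across five concentrations. GI50 is the concentration that inhibits growth by half. TGI denotes the concentration required for complete inhibition of growth.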

Experiments:
Assay in all cases: NCI-60 cell line screen, 48 h
CAKI-1 renal = test system: CAKI-1 renal
K-562 leukemia = test system: K-562 leukemia
DLD-1 colon = test system: DLD-1 colon
SNB-75 CNS = test system: SNB-75 CNS
NCI-H23 lung = test system: NCI-H23 lung
NCI-H226 lung = test system: NCI-H226 lung
SW-620 colon = test system: SW-620 colon
MCF7 breast = test system: MCF7 breast
HOP-92 NSCLC = test system: HOP-92 NSCLC
HCT-15 colon = test system: HCT-15 colon
LXFL 529 NSCLC = test system: LXFL 529 NSCLC
SR leukemia = test system: SR leukemia
RPMI-8226 leukemia = test system: RPMI-8226 leukemia
PC-3 prostate = test system: PC-3 prostate
BT-549 breast = test system: BT-549 breast
SF-295 CNS = test system: SF-295 CNS
HOP-18 NSCLC = test system: HOP-18 NSCLC
IGROV1 ovarian = test system: IGROV1 ovarian
SNB-19 CNS = test system: SNB-19 CNS
DU-145 prostate = test system: DU-145 prostate
DMS 114 small cell lung = test system: DMS 114 small cell lung
NCI-H522 lung = test system: NCI-H522 lung
DMS 273 small cell lung = test system: DMS 273 small cell lung
ACHN renal = test system: ACHN renal
RXF-631 renal = test system: RXF-631 renal
UO-31 renal = test system: UO-31 renal
SK-MEL-28 melanoma = test system: SK-MEL-28 melanoma
KM20L2 colon = test system: KM20L2 colon
OVCAR-4 ovarian = test system: OVCAR-4 ovarian
HCC-2998 colon = test system: HCC-2998 colon
MOLT-4 leukemia = test system: MOLT-4 leukemia
XF 498 CNS = test system: XF 498 CNS
COLO 205 colon = test system: COLO 205 colon
HCT-116 colon = test system: HCT-116 colon
NCI-H460 lung = test system: NCI-H460 lung
NCI/ADR-RES ovarian = test system: NCI/ADR-RES ovarian
HS 578T breast = test system: HS 578T breast
UACC-257 melanoma = test system: UACC-257 melanoma
OVCAR-8 ovarian = test system: OVCAR-8 ovarian
MDA-MB-231 breast = test system: MDA-MB-231 breast
A498 renal = test system: A498 renal
A549 NSCLC = test system: A549 NSCLC
HL-60(TB) leukemia = test system: HL-60(TB) leukemia
M19-MEL melanoma = test system: M19-MEL melanoma
TK-10 renal = test system: TK-10 renal
SK-MEL-2 melanoma = test system: SK-MEL-2 melanoma
U251 CNS = test system: U251 CNS
786-0 renal = test system: 786-0 renal
KM12 colon = test system: KM12 colon
T-47D breast = test system: T-47D breast
HOP-62 NSCLC = test system: HOP-62 NSCLC
LOX IMVI melanoma = test system: LOX IMVI melanoma
SK-MEL-5 melanoma = test system: SK-MEL-5 melanoma
SF-539 CNS = test system: SF-539 CNS
MDA-MB-435 = test system: MDA-MB-435
UACC-62 melanoma = test system: UACC-62 melanoma
CCRF-CEM leukemia = test system: CCRF-CEM leukemia
SN12C renal = test system: SN12C renal
SNB-78 CNS = test system: SNB-78 CNS
MALME-3M melanoma = test system: MALME-3M melanoma
RXF 393 renal = test system: RXF 393 renal
OVCAR-5 ovarian = test system: OVCAR-5 ovarian
SF-268 CNS = test system: SF-268 CNS
HT29 colon = test system: HT29 colon
OVCAR-3 ovarian = test system: OVCAR-3 ovarian
EKVX NSCLC = test system: EKVX NSCLC
SK-OV-3 ovarian = test system: SK-OV-3 ovarian
M14 melanoma = test system: M14 melanoma

CC(C)(O)/C=C/C(=O)[C@](C)(O)[C@H]1[C@H](O)C[C@@]2(C)[C@@H]3CC=C4[C@@H](C=C(O)C(=O)C4(C)C)[C@]3(C)C(=O)C[C@]12C
GI50 (CAKI-1 renal): 0.211 µM and 0.436 µM
TGI (CAKI-1 renal): 0.473 µM and 0.813 µM
TGI (K-562 leukemia): > 9.25 µM and 11.2 µM
GI50 (DLD-1 colon): 0.291 µM and 0.721 µM
TGI (DLD-1 colon): > 6.13 µM and 6.58 µM
GI50 (SNB-75 CNS): 0.0721 µM and 0.193 µM
TGI (NCI-H23 lung): > 7.19 µM and 1.15 µM
GI50 (NCI-H226 lung): 0.252 µM
TGI (SW-620 colon): > 4.83 µM and 6.87 µM and 1.64 µM
TGI (MCF7 breast): 10.5 µM
GI50 (HOP-92 NSCLC): 0.255 µM
GI50 (HCT-15 colon): 0.273 µM
TGI (HCT-15 colon): > 8.33 µM and 3.82 µM
GI50 (LXFL 529 NSCLC): 0.712 µM
TGI (LXFL 529 NSCLC): 1.55 µM and 6.67 µM
GI50 (SR leukemia): 1.2 µM and 0.33 µM
TGI (SR leukemia): > 4.6 µM and 9.08 µM and 14.5 µM
TGI (RPMI-8226 leukemia): 2.16 µM and 3.57 µM and 11 µM
TGI (PC-3 prostate): 5.56 µM
TGI (BT-549 breast): 0.0362 µM
GI50 (SF-295 CNS): 0.275 µM
GI50 (HOP-18 NSCLC): 0.276 µM and 0.602 µM
TGI (HOP-18 NSCLC): 1.33 µM and 1.91 µM
GI50 (IGROV1 ovarian): 0.27 µM
TGI (IGROV1 ovarian): 0.688 µM and 4.45 µM and 4.6 µM
GI50 (SNB-19 CNS): 0.407 µM
TGI (SNB-19 CNS): 1.32 µM and 5.45 µM and 1.19 µM
TGI (DU-145 prostate): 1.9 µM
GI50 (DMS 114 small cell lung): 2 µM
TGI (DMS 114 small cell lung): 5.21 µM and 9.71 µM
GI50 (NCI-H522 lung): 0.278 µM
GI50 (DMS 273 small cell lung): 0.282 µM
TGI (DMS 273 small cell lung): 1.26 µM and 4.29 µM
GI50 (ACHN renal): 0.268 µM
GI50 (RXF-631 renal): 0.75 µM
TGI (RXF-631 renal): > 4.22 µM and 3.61 µM
GI50 (UO-31 renal): 0.195 µM
TGI (SK-MEL-28 melanoma): 0.581 µM and 1.69 µM and 0.244 µM
GI50 (KM20L2 colon): 0.66 µM
TGI (KM20L2 colon): > 5.6 µM
GI50 (OVCAR-4 ovarian): 0.343 µM
TGI (OVCAR-4 ovarian): 3.21 µM and 4.57 µM and 11.5 µM
GI50 (HCC-2998 colon): 0.319 µM
TGI (MOLT-4 leukemia): > 7.73 µM and 24.6 µM
TGI (XF 498 CNS): 0.622 µM and 0.698 µM
GI50 (COLO 205 colon): 0.337 µM
TGI (COLO 205 colon): > 10 µM and 7.92 µM and 1.35 µM
TGI (HCT-116 colon): 3.63 µM and 7.31 µM and 1.15 µM
TGI (NCI-H460 lung): > 10 µM and 1.62 µM
TGI (NCI/ADR-RES ovarian): 17.1 µM
TGI (HS 578T breast): 7.66 µM
TGI (UACC-257 melanoma): 1.84 µM and 3.94 µM and 1.62 µM
TGI (OVCAR-8 ovarian): > 10 µM and 8.1 µM
TGI (MDA-MB-231 breast): 0.0927 µM
GI50 (A498 renal): 0.189 µM and 0.522 µM
TGI (A498 renal): 0.392 µM and 1.09 µM
TGI (A549 NSCLC): > 5.82 µM and 8.6 µM and 10.3 µM
GI50 (HL-60(TB) leukemia): 0.265 µM and 1.1 µM
TGI (HL-60(TB) leukemia): 0.935 µM and 2.54 µM
GI50 (M19-MEL melanoma): 0.929 µM and 2.16 µM
TGI (M19-MEL melanoma): > 10 µM
GI50 (TK-10 renal): 0.36 µM and 1.68 µM
TGI (TK-10 renal): 0.77 µM and 3.23 µM
TGI (SK-MEL-2 melanoma): 0.597 µM and 1.32 µM and 1.16 µM
GI50 (U251 CNS): 0.229 µM
GI50 (786-0 renal): 0.21 µM
TGI (KM12 colon): > 10 µM and 2.33 µM
TGI (T-47D breast): 4.27 µM
GI50 (HOP-62 NSCLC): 0.442 µM
GI50 (LOX IMVI melanoma): 0.574 µM
TGI (LOX IMVI melanoma): 1.3 µM and 3.18 µM
GI50 (SK-MEL-5 melanoma): 0.31 µM
TGI (SK-MEL-5 melanoma): 1.23 µM and 3.62 µM and 1.27 µM
GI50 (SF-539 CNS): 0.253 µM
TGI (MDA-MB-435): 0.885 µM
TGI (UACC-62 melanoma): 4.97 µM and 8.94 µM and 1.76 µM
GI50 (CCRF-CEM leukemia): 0.253 µM and 0.709 µM
TGI (CCRF-CEM leukemia): 2.02 µM and 4.52 µM
GI50 (SN12C renal): 0.431 µM
GI50 (SNB-78 CNS): 0.737 µM
TGI (SNB-78 CNS): 1.61 µM and 5.53 µM

CCOC(=O)Cn1c(=O)[nH]c(=O)c2c1ncn2Cc1ccccc1
TGI (MALME-3M melanoma): > 100 µM
TGI (CAKI-1 renal): > 100 µM
TGI (K-562 leukemia): > 100 µM
TGI (RXF 393 renal): > 100 µM
TGI (DLD-1 colon): > 100 µM
TGI (OVCAR-5 ovarian): > 100 µM
TGI (SNB-75 CNS): > 100 µM
TGI (NCI-H23 lung): > 100 µM
TGI (NCI-H226 lung): > 100 µM
TGI (SW-620 colon): > 100 µM
TGI (HOP-92 NSCLC): > 100 µM
TGI (HCT-15 colon): > 100 µM
TGI (LXFL 529 NSCLC): > 100 µM
TGI (SR leukemia): > 100 µM
TGI (RPMI-8226 leukemia): > 100 µM
TGI (SF-268 CNS): > 100 µM
TGI (SF-295 CNS): > 100 µM
TGI (HOP-18 NSCLC): > 100 µM
TGI (IGROV1 ovarian): > 100 µM
TGI (SNB-19 CNS): > 100 µM
TGI (DMS 114 small cell lung): > 100 µM
TGI (NCI-H522 lung): > 100 µM
TGI (DMS 273 small cell lung): > 100 µM
TGI (ACHN renal): > 100 µM
TGI (RXF-631 renal): > 100 µM
TGI (UO-31 renal): > 100 µM
TGI (SK-MEL-28 melanoma): > 100 µM
TGI (KM20L2 colon): > 100 µM
TGI (HT29 colon): > 100 µM
TGI (OVCAR-4 ovarian): > 100 µM
TGI (HCC-2998 colon): > 100 µM
TGI (MOLT-4 leukemia): > 100 µM
TGI (XF 498 CNS): > 100 µM
TGI (COLO 205 colon): > 100 µM
TGI (HCT-116 colon): > 100 µM
TGI (NCI-H460 lung): > 100 µM
TGI (UACC-257 melanoma): > 100 µM
TGI (OVCAR-3 ovarian): > 100 µM
TGI (OVCAR-8 ovarian): > 100 µM
TGI (A498 renal): > 100 µM
TGI (EKVX NSCLC): > 100 µM
TGI (A549 NSCLC): > 100 µM
TGI (HL-60(TB) leukemia): > 100 µM
TGI (M19-MEL melanoma): > 100 µM
TGI (TK-10 renal): > 100 µM
TGI (SK-MEL-2 melanoma): > 100 µM
TGI (U251 CNS): > 100 µM
TGI (SK-OV-3 ovarian): > 100 µM
TGI (786-0 renal): > 100 µM
TGI (KM12 colon): > 100 µM
TGI (HOP-62 NSCLC): > 100 µM
TGI (LOX IMVI melanoma): > 100 µM
TGI (SK-MEL-5 melanoma): > 100 µM
TGI (SF-539 CNS): > 100 µM
TGI (UACC-62 melanoma): > 100 µM
TGI (M14 melanoma): > 100 µM
TGI (CCRF-CEM leukemia): > 100 µM
TGI (SN12C renal): > 100 µM
TGI (SNB-78 CNS): > 100 µM
